Reference: PubChem BioAssay AID248 (DTP/NCI, 2004)
Several values for one entry are separate records, joined by “and”; a condition that tells them apart may be missing. Equal entries are not always repeated. Inconclusive results and toxic doses are left out. Square brackets hold non-standard residues; d marks the D form. Peptide text beside a SMILES is read from it. * marks the point of attachment. ξ: configuration not given here. Tos = Cc1ccc(S(=O)(=O)*)cc1; ξY = NC(Cc1ccc(O)cc1)C(=O)O

Tested on: L1210 leukemia ip in BDF1 mice, survival T/C
Assay: NCI In Vivo Anticancer Drug Screen. Data for tumor model L1210 Leukemia (intraperitoneal) in B6D2F1 (BDF1) mice
Settings: endpoint: mean survival time, higher = longer survival
In short: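 Tumor cells were implanted, animals were treated, and survival was followed. The result divides the treated measurement by the vehicle-control measurement.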

[1] = dose: 100.0 mg/kg/injection, schedule: Q04DX002 (ip), vehicle: saline with Tween-80
[2] = dose: 200.0 mg/kg/injection, schedule: Q04DX002 (ip), vehicle: saline with Tween-80
[3] = dose: 400.0 mg/kg/injection, schedule: Q04DX002 (ip), vehicle: saline with Tween-80
[4] = dose: 100.0 mg/kg/injection, schedule: Q01DX001 (ip), vehicle: Klucel (hydroxypropylcellulose) (HPC)
[5] = dose: 100.0 mg/kg/injection, schedule: Q01DX009 (ip), vehicle: saline
[6] = dose: 100.0 mg/kg/injection, schedule: Q04DX003 (ip), vehicle: saline
[7] = dose: 200.0 mg/kg/injection, schedule: Q01DX009 (ip), vehicle: saline
[8] = dose: 200.0 mg/kg/injection, schedule: Q04DX003 (ip), vehicle: saline
[9] = dose: 100.0 mg/kg/injection, schedule: Q01DX001 (ip), vehicle: carboxymethylcellulose (CMC)
[10] = dose: 200.0 mg/kg/injection, schedule: Q01DX001 (ip), vehicle: carboxymethylcellulose (CMC)
[11] = dose: 400.0 mg/kg/injection, schedule: Q01DX001 (ip), vehicle: carboxymethylcellulose (CMC)
[12] = dose: 200.0 mg/kg/injection, schedule: Q01DX001 (ip), vehicle: Klucel (hydroxypropylcellulose) (HPC)
[13] = dose: 400.0 mg/kg/injection, schedule: Q01DX001 (ip), vehicle: Klucel (hydroxypropylcellulose) (HPC)

CC(C)=CCC/C(C)=C/CC/C(C)=C/CC(=O)OCC=C(C)C
T/C [1]: 89 % of control
T/C [2]: 99 % of control
T/C [3]: 99 % of control

COC(=O)/C(Br)=C\c1ccc(-c2ccccc2)cc1
T/C (dose: 50.0 mg/kg/injection, schedule: Q01DX009 (ip), vehicle: saline with Tween-80): 93 % of control
T/C (dose: 100.0 mg/kg/injection, schedule: Q01DX009 (ip), vehicle: saline with Tween-80): 93 % of control
T/C (dose: 200.0 mg/kg/injection, schedule: Q01DX009 (ip), vehicle: saline with Tween-80): 93 % of control

ClC(Cl)(Cl)c1ccn(-c2ccccc2)n1
T/C (dose: 25.0 mg/kg/injection, schedule: Q01DX001 (ip), vehicle: Klucel (hydroxypropylcellulose) (HPC)): 110 % of control
T/C (dose: 50.0 mg/kg/injection, schedule: Q01DX001 (ip), vehicle: Klucel (hydroxypropylcellulose) (HPC)): 100 % of control
T/C [4]: 101 % of control and 110 % of control

CCN(CC)C(C)COC(=O)c1cc(=O)n(C)c2ccccc12 (configuration not stated)
T/C (dose: 50.0 mg/kg/injection, schedule: Q01DX009 (ip), vehicle: saline): 101 % of control
T/C [5]: 98 % of control
T/C [6]: 95 % of control
T/C [7]: 89 % of control
T/C [8]: 97 % of control

COC(=O)C[CH2][Sn]([Br])([Br])[c]1ccccc1
T/C [1]: 95 % of control

CCCCCCCCCCCCS
T/C [9]: 103 % of control
T/C [10]: 105 % of control
T/C [11]: 103 % of control

CC(=O)N(C=C(C#N)C#N)c1ccccc1
T/C [4]: 104 % of control
T/C (dose: 100.0 mg/kg/injection, schedule: Q04DX003 (ip), vehicle: Klucel (hydroxypropylcellulose) (HPC)): 108 % of control
T/C [12]: 106 % of control
T/C (dose: 200.0 mg/kg/injection, schedule: Q04DX003 (ip), vehicle: Klucel (hydroxypropylcellulose) (HPC)): 96 % of control
T/C (dose: 400.0 mg/kg/injection, schedule: Q04DX003 (ip), vehicle: Klucel (hydroxypropylcellulose) (HPC)): 116 % of control

O=c1c(-c2ccccc2)c(-c2ccccc2)n2n1C1C=CC2C1 (configuration not stated)
T/C [9]: 96 % of control
T/C [10]: 96 % of control
T/C [11]: 96 % of control

CCCC1COCC(CC)/C1=N\Nc1ccc([N+](=O)[O-])cc1[N+](=O)[O-] (configuration not stated)
T/C [4]: 91 % of control
T/C [12]: 94 % of control
T/C [13]: 91 % of control

COC(=O)C1(C)CCCC2(C)C3CCC4(C)CC3(CCC12)OC4C (configuration not stated)
T/C [1]: 95 % of control
T/C [2]: 100 % of control
T/C [3]: 89 % of control

CC12CC(C(=O)c3ccccc3)C(C)(C1=O)C(c1ccccc1)=C2c1ccccc1 (configuration not stated)
T/C (dose: 100.0 mg/kg/injection, schedule: Q04DX003 (ip), vehicle: saline with Tween-80): 96 % of control
T/C (dose: 200.0 mg/kg/injection, schedule: Q04DX003 (ip), vehicle: saline with Tween-80): 89 % of control
T/C (dose: 400.0 mg/kg/injection, schedule: Q04DX003 (ip), vehicle: saline with Tween-80): 89 % of control

COC1(OC)C2CCC1C(O)C2 (configuration not stated)
T/C [5]: 104 % of control
T/C [7]: 105 % of control

CC1(C)N=C(N)N=C(N)N1c1ccc(CN)cc1
T/C [6]: 109 % of control
T/C [8]: 101 % of control

Cc1ccc(S(=O)(=O)OCC2C3CCC4C3C(C)(C)CCCC24C)cc1 (configuration not stated)
T/C [4]: 107 % of control
T/C [12]: 95 % of control
T/C [13]: 90 % of control

O=C(/C=C/c1ccc(Cl)cc1)CCN1CCC2CCC(C2)C1 (configuration not stated)
T/C (dose: 50.0 mg/kg/injection, schedule: Q01DX001 (ip), vehicle: carboxymethylcellulose (CMC)): 92 % of control
T/C [9]: 95 % of control

Cc1ccc(S(=O)(=O)NCC(=O)NC(Cc2ccc(O)cc2)C(=O)O)cc1 (stereo not drawn) (Tos-Gly-[ξY]-OH)
T/C (dose: 100.0 mg/kg/injection, schedule: Q01DX009 (ip), vehicle: other): 105 % of control
T/C (dose: 200.0 mg/kg/injection, schedule: Q01DX009 (ip), vehicle: other): 102 % of control
T/C (dose: 400.0 mg/kg/injection, schedule: Q01DX009 (ip), vehicle: other): 104 % of control
